Measurements published in ChEMBL document CHEMBL1154027, “Imidazopyridine derivatives as potent and selective Polo-like kinase (PLK) inhibitors” (Bioorg Med Chem Lett, 2009).

Experiment: Plasma concentration in F344/NJcl-rnu nude rat at 0.45 mg/kg after 48 hrs
Assay type: ADME, organism-based
Parameters: dose 0.45 mg/kg
Details: not given

concentration at 48 h [nM]	SMILES
50	C[C@@H](Oc1cc(-c2cnc3ccccn23)sc1C(N)=O)c1ccc(CNC(C)(C)C)cc1OC(F)F

Experiment: Plasma concentration in F344/NJcl-rnu nude rat at 0.60 mg/kg after 48 hrs
Assay type: ADME, organism-based
Parameters: dose 0.6 mg/kg
Details: 0.6 mg/kg

concentration at 48 h [nM]	SMILES
80	C[C@@H](Oc1cc(-c2cnc3ccccn23)sc1C(N)=O)c1ccc(CNC(C)(C)C)cc1OC(F)F

Experiment: Lipophilicity, Log D of the compound
Assay type: physicochemical
Details: octanol/water

logD	SMILES
3.6	C[C@@H](Oc1cc(-c2cnc3ccccn23)sc1C(N)=O)c1ccc(CNC2CC2)cc1Cl
2.3	CC(C)NCc1ccc([C@@H](C)Oc2cc(-c3cnc4ccccn34)sc2C(N)=O)c(Cl)c1
3.8	C[C@@H](Oc1cc(-c2cnc3ccccn23)sc1C(N)=O)c1ccc(CO)cc1Cl
3.7	C[C@@H](Oc1cc(-c2cnc3ccccn23)sc1C(N)=O)c1ccc(CN2CCC(F)CC2)cc1Cl
3.5	C[C@@H](Oc1cc(-c2cnc3ccccn23)sc1C(N)=O)c1ccc(CNC2CCCC2)cc1Cl
3.3	C[C@@H](Oc1cc(-c2cnc3ccccn23)sc1C(N)=O)c1ccc(CN2CCC(O)CC2)cc1Cl
1.9	CNCc1ccc([C@@H](C)Oc2cc(-c3cnc4ccccn34)sc2C(N)=O)c(Cl)c1
2.8	CCNCc1ccc([C@@H](C)Oc2cc(-c3cnc4ccccn34)sc2C(N)=O)c(Cl)c1
2.9	C[C@@H](Oc1cc(-c2cnc3ccccn23)sc1C(N)=O)c1ccc(CNC(C)(C)C)cc1Cl

Continued, compound first:

SMILES	logD
C[C@@H](Oc1cc(-c2cnc3ccccn23)sc1C(N)=O)c1ccc(CN2CCS(=O)(=O)CC2)cc1Cl	3.2
C[C@@H](Oc1cc(-c2cnc3ccccn23)sc1C(N)=O)c1ccc(CNC(C)(C)CO)cc1Cl	2.9
C[C@@H](Oc1cc(-c2cnc3ccccn23)sc1C(N)=O)c1ccc(CNC(C)(C)C)cc1OC(F)F	2.7
C[C@@H](Oc1cc(-c2cnc3ccccn23)sc1C(N)=O)c1ccc(CNC(C)(C)C)cc1C(F)F	2.6
C[C@@H](Oc1cc(-c2cnc3ccccn23)sc1C(N)=O)c1ccc(CNCCO)cc1Cl	2.4
C[C@@H](Oc1cc(-c2cnc3ccc(CO)cn23)sc1C(N)=O)c1ccccc1Cl	4.2
NC(=O)c1sc(-n2cnc3ccccc32)cc1OCc1ccccc1C(F)(F)F	4.6
C[C@@H](Oc1cc(-c2cnc3ccccn23)sc1C(N)=O)c1ccc(CN2CCN(C)CC2)cc1Cl	2.8
CC(Oc1cc(-c2cnc3cc(CO)ccn23)sc1C(N)=O)c1ccccc1Cl (racemic)	4.1
CC(Oc1cc(-c2cnc3ccccn23)sc1C(N)=O)c1cc(CO)ccc1Cl (stereo unspecified)	3.7
C[C@@H](Oc1cc(-c2cnc3ccccn23)sc1C(N)=O)c1ccc(CN2CCNC(=O)C2)cc1Cl	2.8
C[C@@H](Oc1cc(-c2cnc3ccccn23)sc1C(N)=O)c1ccc(CNCCCO)cc1Cl	2.1
C[C@@H](Oc1cc(-c2cnc3ccccn23)sc1C(N)=O)c1ccc(CNC(C)(C)C)cc1F	2.2
C[C@@H](Oc1cc(-c2cnc3ccccn23)sc1C(N)=O)c1ccccc1CO	3.2
NC(=O)c1sc(-c2cnn3ccccc23)cc1OCc1ccccc1C(F)(F)F	4.8
C[C@@H](Oc1cc(-c2cnc3ccccn23)sc1C(N)=O)c1ccccc1Cl	4.8
C[C@@H](Oc1cc(-c2cnc3ccccn23)sc1C(N)=O)c1ccc(CN2CCC(O)C2)cc1Cl (stereo partly specified)	3.3
C[C@@H](Oc1cc(-c2cnc3ccccn23)sc1C(N)=O)c1ccc(CN(C)C)cc1Cl	2.9
NC(=O)c1sc(-c2cnc3ccccn23)cc1OCc1ccccc1Cl	4.1
NC(=O)c1sc(-c2cnc3ccccn23)cc1OCc1ccccc1C(F)(F)F	4.2
